Test results taken from patent US11974973B2, “Ketone supplements-evoked effect on absence epilepsy by co-administration of uridine” (UNIVERSITY OF SOUTH FLORIDA, priority 2022, dated 2024).
“Also recorded” adds a separate entry of the source.

What was measured:
WAG/Rij rats [1] = assay: EEG recording of spike-wave discharges (SWD number, averaged and total SWD time) in WAG/Rij rat model of human absence epilepsy; format: in vivo
Text: Free access to water and food (Table 1), as well as standard laboratory conditions were provided.
Rats were implanted with stainless steel screw electrodes for EEG recording under isoflurane-air mixture (2.0-2.5%) anesthesia. The screw electrodes were placed epidurally over the cortex of the frontal (AP: 2.0 mm; L: 2.1 mm) and parietal (AP: −6.5 mm; L: 2.1 mm) areas. Reference electrodes and ground electrodes were also stainless-steel screw electrodes (implanted above the cerebellar cortex). All electrodes were soldered to a 10-pin socket and permanently attached to the skull with dentacrylate cement (Ivoclar Vivadent AG, Schaan, Liechtenstein). Lidocaine ointment (5%; EGIS, Budapest, Hungary) was used as post-operative pain relief.
The EEG was recorded in a Faraday cage. […] The sampling rate was 500 Hz whereas the bandwidth of the EEG recording was 0.3 Hz to 150 Hz. Both the treatments and handling may induce stress and behavioral changes, which may modify the SWD number. […] For this reason, data of the first 30 min after the treatments was excluded from the analysis. Thus, the number and time of SWDs were considered between 30 and 270 min of post-treatment time (from 1.00 PM to 5.00 PM). SWDs (a train of asymmetric 7-11 Hz sharp spikes and slow waves) were cut off from the raw data files and were analyzed by FFT analysis. The recording periods were split into 60 min sections and evaluated separately. […]
Animals were assigned into eight groups (FIG. 1). To help the rats to adapt to the experimental procedures (e.g., EEG recording), after the two-week recovery period animals were handled daily and were connected to the EEG/CED system for 4 days (once a day, for 4.5 h) (group 1-8). Moreover, on same days, rats of group 7 and group 8 were also gavaged by water (2.5 g/kg/day) for the adaptation of rats to gavage method. To establish averaged control SWD numbers (group 1-8) and control average time and total time of SWDs (group 5, group 6, and group 8), all rats received 1 mL saline i.p. on 3 consecutive days (three control days, first treatment). Thirty min later, animals were injected again with 1 mL saline i.p. (second treatment, group 1-6) or gavaged by 2.5 g/kg water (second treatment, group 7 and 8). […] On the fourth day of experiments, the rats in group 1 and group 2 were i.p. injected with 1 mL 10% DMSO solution (first treatment) and, 30 min later, with 250 mg/kg, and 1000 mg/kg uridine in 1 mL saline (second treatment), respectively. On the fourth day, animals in group 3 first received 0.2 mg/kg DPCPX alone in 1 mL 10% DMSO solution (first treatment) followed by i.p. 1 mL saline (30 min later; second treatment) (FIG. 1). […] On that day, the animals in group 5 were injected with combined i.p. injection of DPCPX and uridine: 0.2 mg/kg DPCPX in 1 mL 10% DMSO solution (first treatment) and, 30 min later, 1000 mg/kg uridine in 1 mL saline (second treatment) were administered. […] Animals of group 7 received i.p. 1 mL saline (first treatment), and 30 min later, gavage of 2.5 g/kg KSMCT was carried out (second treatment) on the fourth day. […] On the fifth (PTC) day, i.p. administration of 1 mL saline (first treatment) was followed by gavage of 2.5 g/kg water (30 min later; second treatment; group 7 and 8) (FIG. 1).
Data were presented as means±standard error of the mean (S.E.M.). The pretreatment control values of SWD numbers (group 1-8) and SWD time (group 5, group 6, and group 8) were the grand average of SWD numbers and time recorded on the three control days.

WAG/Rij rats [2] = conditions: effective doses; previous studies [7,8,25,41,45]; cited from earlier work
[3] = DPCPX i.p. 0.2 mg/kg or SCH 58261 i.p. 0.5 mg/kg alone, PTC day (groups 3 and 4, FIG. 2C,D)

Q: What does the source list for `Nc1nc2c(cnn2CCc2ccccc2)c2nc(-c3ccco3)nn12` [SCH 58261, 7-(2-phenylethyl)-5-amino-2-(2-furyl)-pyrazolo-[4,3-e]-1,2,4-triazolo[1,5-c]pyrimidine]?
A: SWD number compared to control (WAG/Rij rats [1]; [3]): did not change SWD number on PTC days; SWD number compared to control (WAG/Rij rats [1]; SCH 58261 i.p. 0.5 mg/kg alone, treatment day, four hours recording (group 4, FIG. 2D)): did not generate anti-epileptic effect; sleep-waking ratios and averaged time of SWDs (WAG/Rij rats [2]): did not change sleep-waking ratios and averaged time of SWDs

Q: With `CCCn1c(=O)c2[nH]c(C3CCCC3)nc2n(CCC)c1=O` [DPCPX, 1,3-dipropyl-8-cyclopentylxanthine] as the molecule, how does the “SWD number compared to control” value (WAG/Rij rats [1]; DPCPX i.p. 0.2 mg/kg alone, treatment day, 30-270 min (group 3, FIG. 2C), 0.2 mg/kg) read?
A: Its value is “did not evoke proepileptic effect; also recorded: did not generate changes in SWD number”.

Q: And the “SWD number compared to control” value (WAG/Rij rats [1]; [3])?
A: The value was “did not change SWD number on PTC days”.

Q: What about the “sleep-waking ratios and averaged time of SWDs” value (WAG/Rij rats [2]) of the same molecule?
A: Its value is “did not change sleep-waking ratios and averaged time of SWDs”.

Q: Which results are given for `O=c1ccn([C@@H]2O[C@H](CO)[C@@H](O)[C@H]2O)c(=O)[nH]1` [uridine]?
A: SWD number compared to control (WAG/Rij rats [1]; uridine i.p. 250 mg/kg alone, post-treatment control (PTC) day (group 1, FIG. 2A)): significant change in SWD number was not observed; SWD number compared to control (WAG/Rij rats [1]; uridine i.p. 250 mg/kg alone, treatment day, second to fourth hours of recording (group 1, FIG. 2A), 250 mg/kg): only a trend of non-significant decrease in SWD number; SWD number compared to control (WAG/Rij rats [1]; uridine i.p. 1000 mg/kg alone, PTC day, 30-270 min (group 2, FIG. 2B)): significantly decreased SWD number; SWD number compared to control (WAG/Rij rats [1]; uridine i.p. 1000 mg/kg alone, treatment day, 90-270 min (group 2, FIG. 2B), 1000 mg/kg): significantly decreased the SWD number; sleep-waking ratios and averaged time of SWDs (WAG/Rij rats [2]): did not change sleep-waking ratios and averaged time of SWDs
